Test results taken from patent US8168220B2, “Dosage forms of active ingredients containing hydroxystilbene for treating menopausal complaints” (priority 2005, dated 2012).
“Also recorded” adds a separate entry of the source.

Key:
[1] = Pharmacokinetics of ERr 731 ingredients in a subject (plasma LC-MS/MS); type: in vivo, human; conditions: 40 mg ERr 731 orally (10 tablets)
Procedure: Subsequently, 10 ml of blood was taken at various times (as indicated in FIG. 1) and the plasma was obtained by centrifugation.
These plasma samples were processed as follows: 500 μl of plasma were mixed with 25 μl of an internal standard working solution (2.5 ng/μl rhaponticin or rhapontigenin in methanol) and then mixed with 500 μl of isotonic NaCl solution and 2.5 ml of diethyl ether/butanol (9/1; v/v). After shaking and centrifugation (10 minutes at 4600 rpm), about 2 ml of the supernatant were removed and dried under a stream of nitrogen (at 60° C.). The pellet was taken up in 50 μl of methanol. Addition of 200 μl of distilled water was followed by renewed mixing, and 200 μl were pipetted into autosampler tubes (light-protected). 30 μl of the samples were injected for analysis into an LC-MS/MS system (PE Sciex API 3000). Chromatographic separation of the analytes took place on a Phenomenex Polymer X column with a gradient of an ammonium buffer solution and an acetonitrile/methanol mixture as mobile phase.

[2] = Dissolving tests with ERr 731 in ethanol and glycerol; type: physicochemical
Procedure: a) Dissolving Tests with ERr 731® in Ethanol and Glycerol:
Test A: 200 mg of dry extract in 50 ml of glycerol R:
Test B: 200 mg of dry extract in 50 ml of ethanol 30% R:
Test C: 200 mg of dry extract in 50 ml of ethanol 50% R:
Test D: 200 mg of dry extract in 50 ml of ethanol 86% R: […]

[3] = pH-dependent solubility of rhaponticin in aqueous solutions; type: physicochemical; conditions: acidic pH range (pH 3.4-3.6)
Text: Use is made of this for its isolation. Since, besides other organic acids, the root in particular has a high content of oxalic acid (⅔ in water-soluble and ⅓ in bound form), this must be neutralized during the isolation in order to prevent the pH drifting into the acidic range and thus to inhibit premature precipitation of the rhaponticin. This is achieved by using calcium oxide. The latter is employed as quicklime solution with a pH of 12.4-12.6.

[4] = molecular target: T1, estrogen receptor β (ERβ) (Homo sapiens, UniProt Q92731); test: ERβ/mC3-luciferase transactivation in HEC-1B cells; type: cell-based; conditions: 24 hours incubation, FIG. 5
T1 construct: expressed in transfected cells; host or cells: HEC-1B cells (human endometrial adenocarcinoma; no endogenous ERα or ERβ), transient transfection with DOTAP
T1 sequence (Q92731 whole entry): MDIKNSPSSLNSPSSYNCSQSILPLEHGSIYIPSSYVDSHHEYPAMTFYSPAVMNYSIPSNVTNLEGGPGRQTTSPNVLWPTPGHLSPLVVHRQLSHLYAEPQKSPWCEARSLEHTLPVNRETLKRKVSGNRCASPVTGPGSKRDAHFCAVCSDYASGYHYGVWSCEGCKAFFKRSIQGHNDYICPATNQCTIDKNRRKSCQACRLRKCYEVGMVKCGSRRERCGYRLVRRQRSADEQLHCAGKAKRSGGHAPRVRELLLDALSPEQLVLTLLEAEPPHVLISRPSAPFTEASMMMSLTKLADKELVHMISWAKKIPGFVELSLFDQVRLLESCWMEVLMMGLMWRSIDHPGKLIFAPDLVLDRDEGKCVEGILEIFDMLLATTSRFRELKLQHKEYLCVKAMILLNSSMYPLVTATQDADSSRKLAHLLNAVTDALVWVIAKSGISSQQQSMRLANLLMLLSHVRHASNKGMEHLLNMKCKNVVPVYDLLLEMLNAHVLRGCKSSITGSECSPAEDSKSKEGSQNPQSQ
Text: They therefore represent a possible way of investigating, in a human and endometrial context, ligand-dependent effects of substances on the transactivation mechanisms in relation to different receptor subtypes and different estrogen-responsive promoters.
An established ERβ/mC3-luciferase system was employed. For this purpose, HEC-1B cells were applied in 24-well plates with a density of 95 000 cells/well (in Dulbecco's modified Essential Medium (DMEM/F12)). The next day, they were cotransfected with an ERβ-containing construct (hERβ/pSG2) and a triple-ERE-containing promoter/luciferase construct (mC3-Luc/pGL2) (Hillisch et al. Dissecting physiological roles of estrogen receptor alpha and beta with potent selective ligands from structure-based design. Mol Endocrinol. 2004 July; 18:1599-609). The transient transfection took place using DOTAP (N-[1-(2,3-dioleoyloxy)]-N,N,N-trimethylammoniumpropane methyl-sulfate, Roth) as described by the manufacturer.
After 24 hours, the cells were treated with appropriate concentrations of the substances or substance mixtures to be investigated. […] The incubation time was 24 hours. The cells were then lysed. The Luciferase Assay® kit (Promega) was used to determine the luciferase activity on the one hand, and the BCA® kit (Sigma) was used to determine the protein content on the other hand. […]

[5] = Test A: 200 mg of dry extract in 50 ml of glycerol R
[6] = Test B: 200 mg of dry extract in 50 ml of ethanol 30% R
[7] = Test C: 200 mg of dry extract in 50 ml of ethanol 50% R
[8] = Test D: 200 mg of dry extract in 50 ml of ethanol 86% R

| detection in the blood [1] | time of maximum in the blood [1] | content dissolved [2, 5] | content dissolved relative to theory [2, 5] | content dissolved [2, 6] | content dissolved relative to theory [2, 6] | content dissolved [2, 7] | content dissolved relative to theory [2, 7] | content dissolved [2, 8] | content dissolved relative to theory [2, 8] | solubility in aqueous solutions [3] | Compound | activation of ERβ (relative luciferase activity vs DMSO control) [4] |
| --- | --- | --- | --- | --- | --- | --- | --- | --- | --- | --- | --- | --- |
| detected in the blood | 3 to 4 h | 55.1% rhaponticin | (89.0% of theory) | 52.2% rhaponticin | (84.3% of theory) | 58.8% rhaponticin | (95.0% of theory) | 59.8% rhaponticin | (96.6% of theory) | precipitated as yellowish substance | COc1ccc(C=Cc2cc(O)cc(O[C@@H]3O[C@H](CO)[C@@H](O)[C@H](O)[C@H]3O)c2)cc1O [rhaponticin, 3,3′,5-Trihydroxy-4′-methoxystilbene 3-O-β-D-glucopyranoside] |  |
|  |  | 27.1% deoxyrhaponticin | (90.6% of theory) | 25.2% deoxyrhaponticin | (84.2% of theory) | 29.0% deoxyrhaponticin | (97.0% of theory) | 29.5% deoxyrhaponticin | (98.7% of theory) |  | COc1ccc(C=Cc2cc(O)cc(O[C@@H]3O[C@H](CO)[C@@H](O)[C@H](O)[C@H]3O)c2)cc1 [deoxyrhaponticin] |  |
|  |  |  |  |  |  |  |  |  |  |  | COc1ccc(C=Cc2cccc(O)c2)cc1O [deoxyrhapontigenin, 3′,5-Dihydroxy-4′-methoxystilbene] | activate the ERβ dose-dependently; also recorded: effective only at higher concentrations |
